Assays:
[1] = Content (amount deposited) of octreotide acetate per patch of microneedle device, BCA method; assay type: physicochemical; details: average of 10
Procedure: • Material: Polylactic acid having a weight average molecular weight of about 80,000, Height: 500 μm, Density: 625 needles/cm^2, Formulation area of a microneedle base: 1 cm^2/patch (b) Metal Mask Plate • Pitch: 400 μm, Mask thickness: 100 μm, Opening: square shape (one side: 250 μm) (c) Environmental Setting: Room Temperature (25° C.) The concentration of octreotide acetate and the concentration of propylene glycol or glycerin were set as shown in Table 3 and Table 4, and the materials were set in a rotating/revolving mixer to prepare a carrier (a coating agent). Application of the carrier (the coating agent) to microneedles was performed by a predetermined method. More specifically, the carrier the coating agent) was swept by a spatula to fill openings of a metal mask with the carrier. Microneedles (needles) were inserted in the openings thus filled, and then taken out therefrom, and subsequently, the carrier (the coating agent) thus applied on the microneedles was extracted by purified water. By a BCA method (an octreotide standard), the content (an amount deposited) of octreotide acetate per one patch (sheet) of a microneedle device was measured 10 times; calculated average values are shown in Table 3 and Table 4.

[2] = Viscosity measurement of carrier (coating agent) by micron-sample viscometer; assay type: physicochemical; details: 25° C., average of 10
Procedure: • Material: Polylactic acid having a weight average molecular weight of about 80,000, Height: 500 μm, Density: 625 needles/cm^2, Formulation area of a microneedle base: 1 cm^2/patch (b) Metal Mask Plate • Pitch: 400 μm, Mask thickness: 100 μm, Opening: square shape (one side: 250 μm) (c) Environmental Setting: Room Temperature (25° C.)
The concentration of octreotide acetate and the concentration of propylene glycol or glycerin were set as shown in Table 3 and Table 4, and the materials were set in a rotating/revolving mixer to prepare a carrier (a coating agent). The viscosity of the obtained carrier (the coating agent) was measured 10 times by use of a micron-sample viscometer (RHEOSENSE INC., Micron Sample-Viscometer/Rheometer-on-a-chip VROCTM); calculated average values are shown in. Table 3 and Table 4.

[3] = carrier: octreotide acetate 20 / glycerin 80 % by weight
[4] = carrier: octreotide acetate 20 / propylene glycol 80 % by weight
[5] = carrier: octreotide acetate 30 / glycerin 70 % by weight
[6] = carrier: octreotide acetate 35 / glycerin 65 % by weight
[7] = carrier: octreotide acetate 40 / glycerin 60 % by weight
[8] = carrier: octreotide acetate 40 / propylene glycol 60 % by weight
[9] = carrier: octreotide acetate 50 / glycerin 50 % by weight
[10] = carrier: octreotide acetate 50 / propylene glycol 50 % by weight
[11] = carrier: octreotide acetate 60 / glycerin 40 % by weight
[12] = carrier: octreotide acetate 60 / propylene glycol 40 % by weight
[13] = carrier: octreotide acetate 70 / propylene glycol 30 % by weight
[14] = carrier: octreotide acetate 80 / propylene glycol 20 % by weight

C[C@@H](O)[C@@H]1NC(=O)[C@H](CCCCN)NC(=O)[C@@H](Cc2c[nH]c3ccccc23)NC(=O)[C@H](Cc2ccccc2)NC(=O)[C@@H](NC(=O)[C@H](N)Cc2ccccc2)CSSC[C@@H](C(=O)N[C@H](CO)[C@@H](C)O)NC1=O [Octreotide acetate, octreotide acetate]
Content Avg. [1, 3]: 6 μg/patch
Content Avg. [1, 4]: 4 μg/patch
Content Avg. [1, 5]: 39 μg/patch
Content Avg. [1, 6]: 53 μg/patch
Content Avg. [1, 7]: 89 μg/patch
Content Avg. [1, 8]: 36 μg/patch
Content Avg. [1, 9]: 169 μg/patch
Content Avg. [1, 10]: 121 μg/patch
Content Avg. [1, 11]: 149 μg/patch
Content Avg. [1, 12]: 243 μg/patch
Content Avg. [1, 13]: 237 μg/patch
Content Avg. [1, 14]: 97 μg/patch
Viscosity Avg. [2, 3]: 2900 cps
Viscosity Avg. [2, 4]: 200 cps
Viscosity Avg. [2, 5]: 9000 cps
Viscosity Avg. [2, 6]: 12000 cps
Viscosity Avg. [2, 7]: 15000 cps
Viscosity Avg. [2, 8]: 1600 cps
Viscosity Avg. [2, 9]: 21000 cps
Viscosity Avg. [2, 10]: 5400 cps
Viscosity Avg. [2, 11]: 27000 cps
Viscosity Avg. [2, 12]: 15000 cps
Viscosity Avg. [2, 13]: 45000 cps
Viscosity Avg. [2, 14]: 133000 cps
